Reference: patent US20150320880A1, “ANTIBODY DRUG CONJUGATES” (NOVARTIS AG, priority 2013, published 2015)

How the values were obtained:
GIST430 cell line = assay: Combination dose-matrix cell viability (CellTiter Glo, Loewe model); assay type: cell-based; conditions: NEG085-MCC-DM1 in combination with the compound, 120 h
Method: (§1) Relative inhibition of cell viability was calculated for every dose combination. […] Excess inhibition compared to additivity can be plotted as a full dose-matrix chart to visualize the drug concentrations where synergies occur. Synergistic combinations produced regions of excess inhibition within the dose-matrix. […] “Additivity” was found when the combination generated the same inhibition of cell viability response when compared to the response with the single agent by itself “Synergy” was indicated when the inhibition of cell viability was greater than the response of the single agent compared with itself. Alternatively, “Additivity” was indicated with a Loewe score of less than 5, and “Synergy” was indicated by a Loewe score of greater than 5.
(§2) Cell viability was determined by measuring cellular ATP content using the CellTiter Glo luminescence assay (Promega, Madison Wis.). One day before drug addition, 250-500 GIST cells from 2 different cell lines were plated into 384-well plates (Greiner, Monroe, N.C.) in 20 μl growth media.

GIST882 cell line = assay: as above; assay type: cell-based; conditions: NEG085-MCC-DM1 in combination with the compound, 120 h
Method: as §1, §2

[1] = test system: HAMLX5343 systemic primary AML xenograft
[2] = biological target: T1, Mouse cKIT ECD, C-terminal 6x His (Sino Biological Inc, catalog number 50530-M08H) (mouse, UniProt P05532 25-527); assay: SPR (Biacore 2000), antibody captured on anti-human Fc
T1 construct: extracellular domain; Bought protein
T1 sequence (looked up): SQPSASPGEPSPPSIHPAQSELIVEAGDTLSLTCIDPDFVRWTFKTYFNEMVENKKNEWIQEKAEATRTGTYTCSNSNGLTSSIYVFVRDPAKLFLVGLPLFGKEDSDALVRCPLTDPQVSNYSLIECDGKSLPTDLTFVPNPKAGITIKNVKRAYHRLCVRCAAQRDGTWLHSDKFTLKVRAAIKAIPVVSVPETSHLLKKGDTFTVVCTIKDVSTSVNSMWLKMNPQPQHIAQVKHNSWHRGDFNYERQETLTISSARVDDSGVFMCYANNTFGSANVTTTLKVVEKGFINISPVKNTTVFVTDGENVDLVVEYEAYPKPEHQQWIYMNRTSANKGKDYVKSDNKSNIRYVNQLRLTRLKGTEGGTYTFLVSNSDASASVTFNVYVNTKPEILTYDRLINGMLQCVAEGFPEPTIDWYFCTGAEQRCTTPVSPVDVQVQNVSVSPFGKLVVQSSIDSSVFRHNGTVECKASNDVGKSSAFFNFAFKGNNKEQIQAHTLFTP

[3] = biological target: T2, Rat cKIT D1-5 (residues 25-526, C-terminal mFc) (rat); assay: as above
T2 construct: The entry includes the linker and mouse Fc tag; also called rat cKIT-mFc
T2 chain: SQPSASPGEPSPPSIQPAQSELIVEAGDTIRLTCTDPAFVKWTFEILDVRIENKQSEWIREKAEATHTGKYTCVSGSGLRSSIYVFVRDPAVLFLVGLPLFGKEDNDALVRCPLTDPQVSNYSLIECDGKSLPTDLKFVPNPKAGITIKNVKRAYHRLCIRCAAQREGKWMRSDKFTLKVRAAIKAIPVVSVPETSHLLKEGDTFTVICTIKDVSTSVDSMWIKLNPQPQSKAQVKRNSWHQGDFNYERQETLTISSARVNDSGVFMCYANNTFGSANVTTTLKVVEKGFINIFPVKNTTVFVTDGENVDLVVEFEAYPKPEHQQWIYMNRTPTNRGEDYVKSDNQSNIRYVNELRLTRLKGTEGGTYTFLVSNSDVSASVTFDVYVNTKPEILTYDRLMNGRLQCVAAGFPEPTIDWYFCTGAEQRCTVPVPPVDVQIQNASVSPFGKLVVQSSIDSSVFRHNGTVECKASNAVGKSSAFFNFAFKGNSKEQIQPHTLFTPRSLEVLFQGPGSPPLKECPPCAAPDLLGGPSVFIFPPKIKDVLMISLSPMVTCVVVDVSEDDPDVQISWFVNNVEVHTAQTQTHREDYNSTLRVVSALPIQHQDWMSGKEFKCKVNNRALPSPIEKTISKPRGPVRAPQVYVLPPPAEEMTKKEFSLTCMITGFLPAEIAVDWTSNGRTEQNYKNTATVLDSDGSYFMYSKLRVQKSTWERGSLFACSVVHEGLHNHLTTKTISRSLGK

[4] = biological target: T3, Human cKIT D1-5 (human cKIT tr. variant 2, residues 26-520, C-terminal His tag) (human, UniProt P10721 26-524); assay: SPR (Biacore 2000), antibody captured on anti-human Fc, cKIT ECD as analyte, 25 C, 1:1 fit
T3 construct: also called human cKIT ECD; Human c-Kit ECD

[5] = biological target: T4, Cynomolgus monkey cKIT D1-5 (residues 25-520, C-terminal His tag) (cynomolgus monkey, UniProt P10721 25-520 (human entry)); assay: as above
T4 construct: the signal peptide was not part of the protein in the assay; also called cyno cKIT; cynomolgus monkey ECD
T4 chain: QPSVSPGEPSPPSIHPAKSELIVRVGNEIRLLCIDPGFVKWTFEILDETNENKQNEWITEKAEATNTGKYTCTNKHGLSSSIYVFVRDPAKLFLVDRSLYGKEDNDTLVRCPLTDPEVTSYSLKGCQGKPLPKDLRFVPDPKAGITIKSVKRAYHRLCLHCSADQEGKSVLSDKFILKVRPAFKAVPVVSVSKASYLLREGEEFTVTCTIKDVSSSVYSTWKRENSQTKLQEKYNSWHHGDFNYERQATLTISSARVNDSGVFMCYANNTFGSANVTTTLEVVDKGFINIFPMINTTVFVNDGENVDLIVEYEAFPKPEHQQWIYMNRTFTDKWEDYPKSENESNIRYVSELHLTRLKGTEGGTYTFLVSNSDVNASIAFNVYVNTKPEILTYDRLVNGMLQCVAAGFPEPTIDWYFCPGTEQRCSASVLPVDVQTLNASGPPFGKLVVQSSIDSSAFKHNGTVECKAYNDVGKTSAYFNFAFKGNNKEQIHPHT

T3 sequence (P10721 other isoform, or with tags, fused parts or gaps mutant limits assumed): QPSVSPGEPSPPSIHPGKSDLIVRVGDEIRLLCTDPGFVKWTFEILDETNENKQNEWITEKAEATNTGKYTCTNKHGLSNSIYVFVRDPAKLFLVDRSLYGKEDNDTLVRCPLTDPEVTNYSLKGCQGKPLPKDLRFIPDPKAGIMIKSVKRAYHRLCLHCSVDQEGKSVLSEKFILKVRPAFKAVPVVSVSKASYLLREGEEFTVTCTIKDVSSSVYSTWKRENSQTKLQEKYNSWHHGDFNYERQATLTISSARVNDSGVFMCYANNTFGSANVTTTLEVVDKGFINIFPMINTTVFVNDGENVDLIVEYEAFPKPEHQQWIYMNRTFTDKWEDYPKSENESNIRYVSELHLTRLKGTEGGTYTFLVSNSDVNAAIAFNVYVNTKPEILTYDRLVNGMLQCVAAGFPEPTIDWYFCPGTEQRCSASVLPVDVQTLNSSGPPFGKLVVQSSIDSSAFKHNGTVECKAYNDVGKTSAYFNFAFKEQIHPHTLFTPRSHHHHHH

For `Cn1c(=O)n(-c2ccc(C(C)(C)C#N)cc2)c2c3cc(-c4cnc5ccccc5c4)ccc3ncc21` [NVP-BEZ235, 2-Methyl-2-[4-[3-methyl-2-oxo-8-(quinolin-3-yl)-2,3-dihydroimidazo[4,5-c]quinolin-1-yl]phenyl]propionitrile], the GIST430 cell line (GIST430 cell line) was “Additivity (“Additivity” was indicated with a Loewe score of less than 5)” and the GIST882 cell line (GIST882 cell line) was “Synergy (“Synergy” was indicated by a Loewe score of greater than 5)”.

In the case of `Nc1cc(C(F)(F)F)c(-c2cc(N3CCOCC3)nc(N3CCOCC3)n2)cn1` [NVP-BKM120, 4-(trifluoromethyl)-5-(2,6-dimorpholinopyrimidin-4-yl)pyridin-2-amine], the GIST430 cell line (GIST430 cell line) is reported as “Additivity (“Additivity” was indicated with a Loewe score of less than 5)” and the GIST882 cell line (GIST882 cell line) is reported as “Synergy (“Synergy” was indicated by a Loewe score of greater than 5)”.

For `COc1cccc(-c2cc(F)ccc2[C@H]2Cc3nc(N)nc(C)c3C(=O)N2)n1` [NVP-HSP990], the GIST430 cell line (GIST430 cell line) was “Additivity (“Additivity” was indicated with a Loewe score of less than 5)” and the GIST882 cell line (GIST882 cell line) was “Additivity (“Additivity” was indicated with a Loewe score of less than 5)”.

For `COc1ccc(-c2ccc3c(N4CCOC[C@@H]4C)nc(N4CCOC[C@@H]4C)nc3n2)cc1CO` [NVP-CCG168], the GIST430 cell line (GIST430 cell line) was “Additivity (“Additivity” was indicated with a Loewe score of less than 5)” and the GIST882 cell line (GIST882 cell line) was “Additivity (“Additivity” was indicated with a Loewe score of less than 5)”.

In the case of `CN[C@@H](C)C(=O)N[C@H](C(=O)N1CCC[C@H]1c1nc(C(=O)c2ccc(F)cc2)cs1)C1CCCCC1` [NVP-LCL161], the GIST430 cell line (GIST430 cell line) is reported as “Synergy (“Synergy” was indicated by a Loewe score of greater than 5)” and the GIST882 cell line (GIST882 cell line) is reported as “Synergy (“Synergy” was indicated by a Loewe score of greater than 5)”.

For `Nc1ccn([C@@H]2O[C@H](CO)[C@@H](O)[C@@H]2O)c(=O)n1` [ARA-C (cytarabine), cytarabine, reference compound], the “Mean change of body weight (from day 67, % ± SEM)” value ([1]; Day 71, 50 mg/kg Daily × 6 days, intraperitoneally) was 2.3 ± 2.3%, the “anti-tumor activity (leukemic burden)” value ([1]; NSG mice, intraperitoneally daily for 6 days) was “efficacious in three of the animals” and the bodyweight loss ([1]; intraperitoneally daily for 6 days, in three of six animals) was greater than 20%. For the same molecule, the “Mean change of tumor volume (% CD45 positive PBMC's ± SEM)” value ([1]; mouse, in vivo) was −6.6 ± 2.1 % CD45 positive PBMC's and the “Regression (%)” value ([1]; mouse, in vivo) was −52.5%.

For `C[C@@H]1CN(c2ccc(Nc3ncc4ccn(-c5cc(F)c(CN6CCOCC6)c(F)c5)c4n3)cn2)C[C@H](C)N1` [NVP-BVB808], the GIST430 cell line (GIST430 cell line) was “Additivity (“Additivity” was indicated with a Loewe score of less than 5)” and the GIST882 cell line (GIST882 cell line) was “Additivity (“Additivity” was indicated with a Loewe score of less than 5)”.

For `CCN(CC)CCNC(=O)c1c(C)[nH]c(/C=C2\C(=O)Nc3ccc(F)cc32)c1C` [Sutent ®, Sunitinib], the GIST430 cell line (GIST430 cell line) was “Additivity (“Additivity” was indicated with a Loewe score of less than 5)” and the GIST882 cell line (GIST882 cell line) was “Additivity (“Additivity” was indicated with a Loewe score of less than 5)”.

With `Cc1nc(NC(=O)N2CCC[C@H]2C(N)=O)sc1-c1ccnc(C(C)(C)C(F)(F)F)c1` [NVP-BYL719] the GIST430 cell line (GIST430 cell line) was “Synergy (“Synergy” was indicated by a Loewe score of greater than 5)” and the GIST882 cell line (GIST882 cell line) was “Synergy (“Synergy” was indicated by a Loewe score of greater than 5)”.

For `CO[C@H]1C[C@@H]2CC[C@@H](C)[C@@](O)(O2)C(=O)C(=O)N2CCCC[C@H]2C(=O)O[C@H]([C@H](C)C[C@@H]2CC[C@@H](OCCO)[C@H](OC)C2)CC(=O)[C@H](C)/C=C(\C)[C@@H](O)[C@@H](OC)C(=O)[C@H](C)C[C@H](C)/C=C/C=C/C=C/1C` [Afinitor ®, Everolimus], the GIST430 cell line (GIST430 cell line) was “Synergy (“Synergy” was indicated by a Loewe score of greater than 5)” and the GIST882 cell line (GIST882 cell line) was “Synergy (“Synergy” was indicated by a Loewe score of greater than 5)”.

B1: NEG087 (antibody, human IgG1, kappa, V domains shown)
VH: EVQLVESGGGLVQPGGSLRLSCAASGFTFSDYYMAWVRQAPGKGLEWVASINQNTGSTYYLDSVRGRFTISRDNAKNSLYLQMNSLRAEDTAVYYCARGDYYGTTYWYFDVWGQGTTVTVSS
VL: DIQMTQSPSSLSASVGDRVTITCRASQSISSYLNWYQQKPGKAPKLLIYYTSRLQSGVPSRFSGSGSGTDFTLTISSLQPEDFATYYCQQGRRLWSFGGGTKVEIKR
notes: Humanized, optimized variant of 9P3; human IgG1 kappa
B1 was tested, and the binding result [2] was “no binding (tested: 3.125-50 nM of cKIT ECD injected)”, the binding result [3] was “no binding (tested: 3.125-50 nM of cKIT ECD injected)” and the Kd [4] was 1.13 nM. The Kd [5] was 1.39 nM.

B2: NEG027 (antibody, human IgG1, kappa, V domains shown)
VH: B1 VH
VL: EIVMTQSPATLSLSPGERATLSCRASQDISNYLNWYQQKPGQAPRLLIYYTSRLQSGIPARFSGSGSGTDYTLTISSLEPEDFAVYYCQQGKKLWSFGGGTKVEIKR
notes: as for B1
For B2, the binding result [2] was “no binding (tested: 3.125-50 nM of cKIT ECD injected)”, the binding result [3] was “no binding (tested: 3.125-50 nM of cKIT ECD injected)” and the Kd [4] was 1.34 nM.
